Legend:
male volunteers = test: Number of night awakenings with the need to urinate, recorded by male volunteers over six-week trial periods; format: in vivo, human; conditions: volunteers who woke three or more times a night in more than 28 nights of six-week baseline; multiple daily doses of 15-20 grams; result in at least two thirds of the nights of a subsequent six week trial period; seen in some volunteers
Source text: A group of male volunteers recorded for six weeks the number of times a night that they were awakened with the need to urinate. Those who woke up three or more times a night in more than 28 nights durng the six week trial were then given multiple daily doses of 15-20 grams of 2-amino-4-carbamoylbutanoic acid and continued to record the number of times a night that they were awakened with the need to urinate.

prostate enlargement = test: Treatment of a person with prostate enlargement diagnosed as a non-cancerous condition; format: in vivo, human; conditions: 10 grams with each meal, total 40 grams daily
Source text: A person with prostate enlargement diagnosed as a non-cancerous condition started a regimen of taking 10 grams of 2-amino-4-carbamoylbutanoic acid with each meal for a total of 40 grams daily.

Q: What does the source list for `NC(=O)CCC(N)C(=O)O` (stereo not drawn) [2-amino-4-carbamoylbutanoic acid]?
A: number of times a night awakened with the need to urinate (male volunteers): diminished from three or more times a night to twice, once, and even none at all; relief felt (prostate enlargement; after a few weeks): felt relief; prostate size (prostate enlargement; after two months of this regimen): shrunk to normal size
